This is an account of results in ChEMBL document CHEMBL3769324, “Acetophenone derivatives: novel and potent small molecule inhibitors of monoamine oxidase B” (Medchemcomm, 2015).

pIC50: −log10 of the molar value. Bounds are passed on as bounds.

One may read the inhibition as the change of the read-out against control, counted positive when it falls. The low end stands for little suppression, the high end for strong suppression. One may read the pIC50 as −log10 of the IC50, conventionally taken in molar units. Low values mean a high IC50, high ones a low IC50.

Series [1] addresses T1, Amine oxidase [flavin-containing] A (Homo sapiens, UniProt P21397).
T1 sequence (P21397 whole entry): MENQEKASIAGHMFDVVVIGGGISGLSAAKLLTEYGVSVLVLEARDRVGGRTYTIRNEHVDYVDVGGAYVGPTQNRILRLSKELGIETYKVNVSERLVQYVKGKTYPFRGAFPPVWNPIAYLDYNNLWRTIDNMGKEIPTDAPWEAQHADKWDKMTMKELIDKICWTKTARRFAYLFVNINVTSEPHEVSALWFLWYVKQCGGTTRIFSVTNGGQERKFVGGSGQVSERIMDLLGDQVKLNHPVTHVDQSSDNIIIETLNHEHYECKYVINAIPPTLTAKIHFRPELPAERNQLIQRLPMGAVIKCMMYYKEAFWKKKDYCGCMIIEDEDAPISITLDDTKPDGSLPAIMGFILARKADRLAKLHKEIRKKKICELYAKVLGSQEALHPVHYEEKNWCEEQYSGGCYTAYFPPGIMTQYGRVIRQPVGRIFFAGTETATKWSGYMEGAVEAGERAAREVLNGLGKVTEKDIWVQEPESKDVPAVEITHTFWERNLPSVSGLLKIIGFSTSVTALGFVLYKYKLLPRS
Put plainly: Inhibition of human MAOA using p-tyramine as substrate at 100 uM after 15 mins by Amplex Red MAO assay. The conditions noted are these: 0.25 h.

The species named for a further series is Homo sapiens. Put plainly: Selectivity index, ratio of IC50 for human MAOA to IC50 for human MAOB.
The target of series [2] is T2, Amine oxidase [flavin-containing] B (Homo sapiens, UniProt P27338).
T2 sequence (P27338 whole entry): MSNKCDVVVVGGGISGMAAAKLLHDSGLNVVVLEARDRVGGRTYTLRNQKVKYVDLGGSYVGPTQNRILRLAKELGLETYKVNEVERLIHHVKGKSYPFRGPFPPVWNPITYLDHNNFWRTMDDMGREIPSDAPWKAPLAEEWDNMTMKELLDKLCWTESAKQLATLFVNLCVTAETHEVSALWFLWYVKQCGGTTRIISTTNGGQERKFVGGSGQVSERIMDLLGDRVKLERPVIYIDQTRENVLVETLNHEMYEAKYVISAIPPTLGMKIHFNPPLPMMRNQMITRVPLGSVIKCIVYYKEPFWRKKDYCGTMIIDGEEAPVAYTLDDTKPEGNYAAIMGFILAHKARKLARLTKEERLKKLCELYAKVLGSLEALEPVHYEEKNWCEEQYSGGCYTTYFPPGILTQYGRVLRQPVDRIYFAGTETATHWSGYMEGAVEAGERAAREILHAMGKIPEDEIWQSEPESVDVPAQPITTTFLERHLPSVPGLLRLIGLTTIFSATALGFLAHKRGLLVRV
Put plainly: Inhibition of human MAOB using p-tyramine as substrate after 15 mins by Amplex Red MAO assay.

The target of series [3] is T1, Amine oxidase [flavin-containing] A. Put plainly: Inhibition of MAOA (unknown origin).
The target in series [4] is T2, Amine oxidase [flavin-containing] B. Put plainly: Inhibition of MAOB (unknown origin).
In series [5] the target is T1, Amine oxidase [flavin-containing] A. Put plainly: Inhibition of human MAOA using p-tyramine as substrate after 15 mins by Amplex Red MAO assay.
Series [6] concerns the target T2, Amine oxidase [flavin-containing] B. Kind of series: Reversible inhibition of human MAOB using p-tyramine as substrate preincubated for 60 mins.
Series [7] shares this target. Put plainly: Competitive inhibition of human MAOB using 50 to 500 uM of p-tyramine as substrate up to 20 nM by Lineweaver-Burk plot analysis.
Another series deals with SH-SY5Y. Put plainly: Neurotoxicity against human SH-SY5Y cells assessed as cell viability at 3 to 50 uM after 48 hrs by MTT assay. The series is classed as toxicity, cell-based.

`CC(=O)c1cccc(OCc2ccc(C)cc2)c1` came in with an inhibition at 100 µM in series [1] of 23%. The Ratio IC50 in the series filed under Homo sapiens is greater than 714. The same compound showed a pIC50 in series [2] of 6.85.

Turning to `CC(=O)c1ccc(OCc2ccc([N+](=O)[O-])cc2)cc1`, the inhibition at 100 µM in series [1] worked out at 33.8%. Further, the Ratio IC50 in the series listed under Homo sapiens is greater than 1040. For the same compound, the pIC50 in series [2] is 7.02.

For the compound `CC(=O)c1ccc(OCc2ccccc2F)cc1`, testing at 100 µM in series [1] gave an inhibition of 47.1%. The Ratio IC50 in the series listed under Homo sapiens was greater than 1760. The pIC50 in [2] is 7.24.

Take `CC(=O)c1ccc(OCc2ccc(C)cc2)cc1`: in [1], at 100 µM the inhibition was 5.96%. In addition, the Ratio IC50 in the series filed under Homo sapiens is greater than 980. The compound further had a pIC50 in series [2] of 6.99.

Take `O=C1CCc2ccc(OCc3ccc(Br)cc3)cc2N1`: the results for the pIC50 in series [3] and in series [4] were 5.10 and 8.54, respectively.

For `CC(=O)c1cccc(OCc2ccc([N+](=O)[O-])cc2)c1`, the Ratio IC50 in the series listed under Homo sapiens came out at 1180. For the same compound, the pIC50 is 7.12 in series [2] and 4.05 in [5].

In series [1], `CC(=O)c1ccc(OCc2ccccc2)cc1` showed an inhibition at 100 µM of 8.19%. Moreover, the Ratio IC50 in the series filed under Homo sapiens is greater than 909. This compound also had a pIC50 in [2] of 6.96.

In turn, `CC(=O)c1ccc(OCc2ccccc2[N+](=O)[O-])cc1` registered an inhibition at 100 µM in series [1] of 34%. Moreover, in [6], the “inhibition (INH)” value is “Active”. In the series listed under Homo sapiens, the Ratio IC50 was greater than 352. Moreover, the negative logarithm of the IC50 (pIC50) in [2] was 6.55.

In the case of `CC(=O)c1cccc(OCc2cccc(Cl)c2)c1`, in the series listed under Homo sapiens, the Ratio IC50 was determined as 1370. Moreover, the pIC50 in series [2] was 7.47; in series [5] it was 4.33.

`CC(=O)c1cccc(OCc2ccccc2)c1`: the inhibition at 100 µM in [1] was found to be 31%. The Ratio IC50 in the series listed under Homo sapiens is greater than 51.3. Besides, the pIC50 in series [2] is 5.71.

Consider `CC(=O)c1ccc(OCc2ccc(F)cc2)cc1`, for which 100 µM produced 43.5% inhibition in [1]. The Activity entry in series [7] was “Active”; in the series on SH-SY5Y, “Non-toxic”.

In series [5], `CC(=O)c1cccc(OCc2ccc(Br)cc2)c1` had a pIC50 of 4.31.

Take `CC(=O)c1ccc(OCc2ccc(Cl)cc2)cc1`: the Ratio IC50 in the series filed under Homo sapiens was 1480. In addition, the pIC50 is 7.20 in [2] and 4.03 in series [5].

Turning to `CC(=O)c1cccc(OCc2ccc(F)cc2)c1`, the inhibition at 100 µM in [1] amounted to 49.6%. In the series filed under Homo sapiens, the Ratio IC50 is greater than 1160. This compound also had a pIC50 in series [2] of 7.06.

For the compound `CC(=O)c1ccc(OCc2cccc(F)c2)cc1`, the inhibition at 100 µM in [1] came to 48.4%. For the same compound, the Ratio IC50 in the series listed under Homo sapiens was greater than 1200. The compound also had a pIC50 in series [2] of 7.08.

On to `C#CCNCc1cc2cc(OCc3ccccc3)ccc2[nH]1`, for which the pIC50 in series [3] was 6.10; in [4], 7.96.

`CC(=O)c1ccc(OCc2cccc(Br)c2)cc1` registered an inhibition at 100 µM in series [1] of 48.3%. The Ratio IC50 in the series filed under Homo sapiens was greater than 467. This compound gave a negative-log IC50 (pIC50) in series [2] of 6.67.

Take `CC(=O)c1ccc(OCc2ccc(F)c(F)c2)cc1`: in the series filed under Homo sapiens, the Ratio IC50 is 1150. The results for the pIC50 in series [2] and in series [5] were 7.17 and 4.11, respectively.

As for `CC(=O)c1ccc(OCc2ccc(Br)cc2)cc1O`, the pIC50 in series [3] was 4.80; in series [4] it was 8.40.

For `CC(=O)c1ccc(OCc2ccccc2Cl)cc1`, the Ratio IC50 in the series listed under Homo sapiens turned out to be 288. Also, the pIC50 is 6.51 in series [2] and 4.05 in series [5].

In turn, `CC(=O)c1ccc(OCc2cc(F)c(F)c(F)c2)cc1` had an inhibition at 100 µM in series [1] of 44.3%. In addition, the Ratio IC50 in the series listed under Homo sapiens is greater than 1190. The compound also showed a pIC50 in series [2] of 7.08.

In [1], `CC(=O)c1cccc(OCc2cccc(Br)c2)c1` gave an inhibition at 100 µM of 49.1%. Further, the Ratio IC50 in the series listed under Homo sapiens was greater than 1040. Moreover, in series [2], the pIC50 is 7.02.

Consider `O=C1CCCc2cc(OCc3ccc(I)cc3)ccc21`, for which the pIC50 is 5.89 in series [3] and 8.35 in series [4].

As for `CC(=O)c1ccc(OCc2ccccc2C)cc1`, the inhibition at 100 µM in [1] worked out at 42.9%. For the same compound, the Ratio IC50 in the series listed under Homo sapiens was greater than 1300. Moreover, the pIC50 in series [2] is 7.11.

In turn, `CC(=O)c1ccc(OCc2cccc(C)c2)cc1` showed an inhibition at 100 µM in [1] of 32.3%. The Ratio IC50 in the series listed under Homo sapiens was greater than 1160. Besides, in series [2], the pIC50 is 7.06.

With `CC(=O)c1ccc(OCc2cccc([N+](=O)[O-])c2)cc1`, in the series filed under Homo sapiens, the Ratio IC50 is 493. For the same compound, the pIC50 in series [2] was 6.98; in [5] it was 4.29.

On to `CC(=O)c1cccc(OCc2ccc(C(F)(F)F)cc2)c1`, for which, in series [1], the inhibition at 100 µM amounted to 27.2%. In addition, in the series listed under Homo sapiens, the Ratio IC50 was greater than 2320. In series [2], the pIC50 is 7.36.

As for `CC(=O)c1cccc(OCc2cccc(F)c2)c1`, testing at 100 µM in [1] gave an inhibition of 31%. Also, the Ratio IC50 in the series listed under Homo sapiens was greater than 518. Further, the pIC50 in series [2] is 6.71.

In the case of `CC(=O)c1ccc(OCc2cccc(C(F)(F)F)c2)cc1`, 100 µM produced 48.9% inhibition in series [1]. Moreover, the Ratio IC50 in the series filed under Homo sapiens is greater than 1720. Also, in series [2], the pIC50 is 7.24.

As to `CC(=O)c1ccc(OCc2ccccc2C(F)(F)F)cc1`, in the series listed under Homo sapiens, the Ratio IC50 amounted to 385. Moreover, the figures for the negative-log IC50 (pIC50) in series [2] and in series [5] were 6.74 and 4.15, respectively.

For the compound `CC(=O)c1cccc(OCc2cccc(C(F)(F)F)c2)c1`, the inhibition at 100 µM in [1] was found to be 46.7%. Also, the “inhibition (INH)” value in series [6] is listed as “Active”. Further, in the series listed under Homo sapiens, the Ratio IC50 was greater than 4720. Besides, the pIC50 in [2] is 7.67.

`CC(=O)c1cccc(OCc2ccc(Cl)cc2)c1` had a pIC50 in series [5] of 4.40. Besides, the Activity result is reported as “Active” in [7] and “Non-toxic” in the series on SH-SY5Y.

In the case of `CC(=O)c1ccc(OCc2ccc(C(F)(F)F)cc2)cc1`, in series [1], 100 µM produced 26.4% inhibition. In the series filed under Homo sapiens, the Ratio IC50 was greater than 1280. In series [2], this compound had a negative-log IC50 (pIC50) of 7.11.

On to `CC(=O)c1cccc(OCc2cccc([N+](=O)[O-])c2)c1`, for which the inhibition at 100 µM in series [1] was 17.8%. In addition, the Ratio IC50 in the series filed under Homo sapiens is greater than 877. The compound further gave a pIC50 in series [2] of 6.94.

As for `CC(=O)c1cccc(OCc2cccc(C)c2)c1`, 100 µM produced 31.1% inhibition in series [1]. The Ratio IC50 in the series filed under Homo sapiens was greater than 112. In series [2], this compound showed a pIC50 of 6.05.

Compound `CC(=O)c1ccc(OCc2ccc(Br)cc2)cc1` came in with an inhibition at 100 µM in [1] of 23.2%. Also, the Ratio IC50 in the series listed under Homo sapiens was greater than 1170. This compound had a pIC50 in series [2] of 7.07.

For the compound `CC(=O)c1ccc(OCc2cccc(Cl)c2)cc1`, the pIC50 in [5] was 4.08.

On to `CC(=O)c1ccc(OCc2ccc(F)cc2F)cc1`, for which the inhibition at 100 µM in series [1] stood at 45.7%. In the series filed under Homo sapiens, the Ratio IC50 is greater than 3660. This compound gave a pIC50 in series [2] of 7.56.

Consider `C[C@H](NCc1ccc(OCc2cccc(F)c2)cc1)C(N)=O` [SAFINAMIDE], for which the inhibition at 100 µM in [1] was determined as 9.74%.
